Columns and labels:
quail chymotrypsin = assay: ATEE assay: inhibition of quail intestinal chymotrypsin activity; format: biochemical, Japanese quail; settings: compound 1 x 10⁻⁵M; ATEE substrate; percentage inhibition of control activity ± standard deviation (n = 3); 5 min, 10 µM
Method: The substrate was prepared by dissolving ATEE (10 mg) in Tris-HCl buffer of pH 7.5 containing 30% (v/v) of methanol (25 ml). The quail intestine protease activity was partially purified as described above prior to testing for chymotrypsin activity. The reaction was carried out in a quartz cuvette (1 x 0.25 x 1 cm³) containing substrate (1 ml) and 100 mM Tris-HCl buffer (200 µl). The reaction was started by the addition of the partially purified intestine protease (200 µl) and followed bv the decrease in absorbance at 237 nm over a 5 minute period. All determinations were carried out in triplicate against a reagent blank.

bullfinch trypsin = assay: BAEE assay: inhibition of bullfinch intestinal trypsin activity; format: biochemical; settings: compound 1 x 10⁻⁵M; BAEE substrate; percentage inhibition of control activity ± standard deviation (n = 3); 7 min, 10 µM
Method: (§1) Dried avian intestine powder (500 mg) was extracted for 30 minutes in 1 mM HC₁ (5 ml). The extract was centrifuged at 22,000 x g for 30 minutes at 4°C. The resultant supernatant was applied to a column of Sephadex G-50, medium grade (360 mm x 15 mm) and eluted with 0.5 mM HCl at 0.7 ml/min. Fractions (3.5 ml) were collected and tested for the presence of protein by determining their absorbance at 280 nm. The proteinaceous fractions were bulked and concentrated by passing them through an ultrafiltration unit (YM 30 filter). The concentrate was collected and kept at 4°C throughout its use.
The substrate was prepared bv dissolving BAEE (10 mg) in a mixture of 50 mM Tris-HCl buffer of pH 7.5 (24 ml) and 5% (w/v) calcium chloride solution (1 ml). The bullfinch intestine protease activity was partially purified as described above prior to testing for trypsin activity. The reaction was carried out in a quartz cuvette (1 x 0.25 x 1 cm³) containing substrate (1 ml) and 50 mM Tris-HCl buffer (200 µl). The reaction was started by the addition of the partially purified intestine protease 1200 µl) and followed by the decrease in absorbance at 253 nm over a 7 minute period. All determinations were carried out in triplicate against a reagent blank.
(§2) In both the chymotrypsin and the trypsin assays a control was however carried out using the 200 µl of buffer containing no added compound.

pigeon trypsin = assay: TAME assay: inhibition of pigeon intestinal trypsin activity; format: biochemical; settings: compound 60 µg/ml; TAME substrate; percentage inhibition of control activity ± standard deviation (n = 3); 5 min
Method: as §1
The substrate was prepared by dissolving TAME (19 mg) in a mixture of 100 mM Tris-HCl buffer of pH 7.5 (50 ml) and 5% (w/v) calcium chloride solution (2 ml). The pigeon intestine protease was partially purified as described above prior to testing for trypsin activity. The reaction was carried out in a quartz cuvette (1 x 0.25 x 1 cm³) containing substrate (3 ml) and 100 mM Tris-HCl buffer pH 7.5 (100 µl). The reaction was started by the addition of the partially purified intestine protease (100 µl) and followed by the decrease in absorbance at 247 nm over a 5 minute period.
as §2

feral pigeons [1] = assay: Three day no-choice feeding test with feral pigeons; format: in vivo; settings: 0.5% w/w compound/pellet, ± standard deviation; for Mean weight difference: after the test compared with before; for Mean consumption: treated food
Method: (§3) Feral pigeons were transferred from a communal outdoor aviary to individual cages and maintained on a 10 hour light - 14 hour dark cycle. Birds were gradually weaned away from their normal diet of maize, wheat and maple peas to a standard laboratory diet of turkey starter pellets.
(§4) The pellets were oven dried and then left to absorb atmospheric moisture. The control food was sprayed with the same volume of acetone/water mixture.
(§5) A group of 35 feral pigeons was caged individually for the trials which used eight compounds of formula (I) together with sucrose octaacetate and dimethyl anthranilate, both of which are substances which are known to be avian repellents. Each bird was subjected to treatment with each compound in a random order subject to the limitation of a latin square design. Each treatment was presented to the birds in no-choice and two-choice conditions. The no-choice phase lasted 3 days, during which a bird was presented with a single bowl containing 120 g of treated food. Each bird was weighed before and after the no-choice phase, as was the amount of food remaining. There immediately followed a two-choice phase in which the birds could choose between food treated with a given chemical and a bowl containing otherwise identical pellets without the chemical (the control treatment utilising two bowls of acetone/water treated pellets, one of which was arbitrarily selected as the control). The two-choice phase lasted four days during which food consumption was monitored daily. The position of the food bowls was alternated each day in order to overcome the confusing of food preference with position preference and ample water and grit were supplied throughout the trial.

Japanese quail = assay: No choice feeding trial with Japanese quail; format: in vivo; settings: 5,000 ppm additive in turkey starter crumbs, 14 days, ± standard deviation
Text: (A) Six week old female japanese quail were preconditoned by weighing them seven days before the start of the feeding trial. Five quail were placed in each of four cages and each cage was provided with a different diet, these being (a) a control diet of standard turkey starter crumbs (TSC), (b) TSC treated with 5,000 ppm cinnamamide, (c) TSC treated with 5,000 ppm 4-hydroxy-3,5-dimethoxycinnamic acid, and (d) TSC treated with 2,500 ppm cinnamamide + 2,500 ppm 4-hydroxy-3,5-dimethoxycinnamic acid. The treated TSC was prepared in each case by dissolving/-suspending the compound or compounds in diethyl ether (1500 ml) and mixing this with TSC (2000 g) at 0.25% or 0.5% w/w concentration compound/TSC in an industrial food mixer for 1 hour to evaporate off the diethyl ether and produce a homogeneous mixture. The control was prepared by mixing TSC (2000 g) with diethyl ether for 1 hour in an industrial food mixer. The amount of each diet consumed and the weight gain of the birds was recorded on a daily basis for a period of 14 days. The trial was carried out in duplicate.
The results of the trial are presented in Table 2, together with the standard deviation. It will be seen that diets (b) and (d) produced a decreased increase in body weight as compared with the control diet (a). It should be appreciated that increased consumption, which apparently occurs with diets (c) and (d), can be the result of a compensation against the occurrence of the enzyme inhibitory effect and a consequent reduction in value of the food consumed.

feral pigeons [2] = assay: Four day two-choice feeding test with feral pigeons; format: in vivo; settings: for Mean consumption of treated food: four day two-choice, 0.5% w/w compound/pellet; for deterrent effect on food consumption: two-choice test, proportions of treated and untreated food consumed, statement in words
Method: as §3, §4, §5
The data obtained in the four day two-choice test is presented in Table 5 for mean consumption of treated food. […]

SMILES | Inhibition of Activity Chymotrypsin (quail chymotrypsin) | Inhibition of Activity (pigeon trypsin) | Mean weight difference (feral pigeons [1]) | Mean consumption (feral pigeons [1]) | Mean consumption of treated food (feral pigeons [2]) | also measured
COc1cc(C(=O)O)cc(OC)c1O [4-Hydroxy-3,5-dimethoxy-benzoic acid, reference compound] | 2 ± 2 percentage |  |  |  |  | 
COc1cccc(C=CC(=O)O)c1 [3-Methoxycinnamic acid] | 56 ± 4 percentage |  |  |  |  | 
COc1cc(C=CC(=O)O)cc(OC)c1O [4-Hydroxy-3,5-dimethoxy-cinnamic acid, 4-Hydroxy-3,5-dimethoxycinnamic acid] | 94 ± 2 percentage | 16 ± 4 percentage | 2.3 ± 0.9 grams | 60.2 ± 3.3 grams | 29.2 ± 2.8 grams | Inhibition of Activity Trypsin (bullfinch trypsin): 22 ± 2 percentage; Average food eaten (Japanese quail): 21 ± 0.3 g/bird/day; Increase in body weight (Japanese quail): 0.89 ± 0.10 g/bird/day
CC(=Cc1ccccc1)C(=O)O [α-Methylcinnamic acid] | 36 ± 3 percentage |  |  |  |  | 
O=C(O)C=Cc1ccc(O)cc1 [4-Hydroxycinnamic acid, 4-hydroxycinnamic acid] | 12 ± 1 percentage |  |  |  |  | 
COc1cc(C=CC(=O)O)cc(OC)c1 [3,5-Dimethoxycinnamic acid] | 63 ± 1 percentage | 14 ± 1 percentage | -12.9 ± 1.2 grams | 33.1 ± 1.5 grams | 12.1 ± 1.7 grams | deterrent effect on food consumption (feral pigeons [2]): most marked
CC(C=O)=Cc1ccccc1 [α-Methylcinnamaldehyde] | 17 ± 5 percentage |  |  |  |  | 
O=C(O)C=Cc1cccc(O)c1 [3-Hydroxycinnamic acid] | 43 ± 2 percentage |  |  |  |  | 
COc1cc(C=CC(=O)O)cc(OC)c1OC [3,4,5-Trimethoxycinnamic acid] | 88 ± 2 percentage | 0 percentage | -1.5 ± 0.9 grams | 53.0 ± 2.1 grams | 19.8 ± 2.7 grams | Inhibition of Activity Trypsin (bullfinch trypsin): 36 ± 1 percentage; deterrent effect on food consumption (feral pigeons [2]): most marked
N#CC=Cc1ccccc1 [Cinnamonitrile] | 23 ± 1 percentage |  |  |  |  | 
O=CC=Cc1ccccc1 [Cinnamaldehyde] | 57 ± 4 percentage |  |  |  |  | 
CNc1ccccc1C(=O)OC [Dimethylanthranilate, Dimethyl anthranilate, reference compound] |  | 9 ± 2 percentage | -4.8 ± 2.0 grams | 45.9 ± 2.9 grams | 18.2 ± 2.4 grams | 
O=C(O)CCc1ccccc1 [Hydrocinnamic acid] | 19 ± 3 percentage |  |  |  |  | 
O=C(O)c1ccccc1 [Benzoic acid, reference compound] | 14 ± 1 percentage |  |  |  |  | 
OCC=Cc1ccccc1 [Cinnamyl alcohol] | 20 ± 6 percentage |  |  |  |  | 
CC(=O)OC[C@H]1O[C@@](COC(C)=O)(O[C@H]2O[C@H](COC(C)=O)[C@@H](OC(C)=O)[C@H](OC(C)=O)[C@H]2OC(C)=O)[C@@H](OC(C)=O)[C@@H]1OC(C)=O [Sucrose octaacetate, reference compound] |  |  | 2.3 ± 0.9 grams | 54.0 ± 2.6 grams | 28.6 ± 2.4 grams | 
COc1ccc(C=CC(=O)O)cc1OC [3,4-Dimethoxycinnamic acid] | 83 ± 3 percentage | 16 ± 1 percentage | -1.1 ± 0.9 grams | 55.3 ± 2.3 grams | 27.1 ± 2.8 grams | 
COc1cc(C=CC(=O)O)ccc1O [4-Hydroxy-3-methoxycinnamic acid] |  | 16 ± 4 percentage | -0.2 ± 1.1 grams | 54.5 ± 2.9 grams | 22.7 ± 2.4 grams | 
O=C(C=Cc1ccc(O)c(O)c1)OC1CC(O)(C(=O)O)CC(O)C1O (centres unmarked) [3-(3',4'-Dihydroxycinnamoyl)-quinic acid] |  | 3 ± 1 percentage |  |  |  | 
O=C(O)Cc1ccccc1 [Phenylacetic acid, reference compound] | 13 ± 2 percentage |  |  |  |  | 
